In patent publication US20230276831A1, “Food/Beverage Article” (Kikkoman Corporation, priority 2020, published 2023):

Experiments:
[1] = tested on: Lactobacillus rennini (DSM 20253); assay: Antimicrobial action of oxygen-containing heterocyclic compounds in soy sauce (Test Example 6); format: cell-based; parameters: key to Antimicrobial activity: A: The bacterial count decreases to less than 10% of the bacterial count of the control group.; B: The bacterial count decreases to 10% or more and less than 50% of the bacterial count of the control group.; C: The bacterial count decreases to 50% or more and less than 100% of the bacterial count of control group.; D: The bacterial count is the same as the bacterial count of the control group; details: salt 4% (w/v), alcohol 5% (v/v); for activity at 1 ppm / activity at 5 ppm / activity at 10 ppm / activity at 25 ppm / activity at 50 ppm / activity at 100 ppm: Loigolactobacillus rennini, DSM20253, 168 h; for activity at 1 ppm / Antimicrobial activity: test substance 1 ppm; for activity at 5 ppm: test substance 5 ppm; for activity at 10 ppm: test substance 10 ppm; for activity at 25 ppm: test substance 25 ppm; for activity at 50 ppm: test substance 50 ppm; for activity at 100 ppm: test substance 100 ppm
Experimental: (§1) Commercially available whole soybean soy sauce (produced by Kikkoman Corporation) was electrodialyzed and then concentrated under reduced pressure to produce soy sauce at a salt concentration of 0% (w/v) and an alcohol concentration of 0% (v/v). Then, salt and/or alcohol was added to the above-mentioned obtained soy sauce, and the mixture was then heat-treated to produce soy sauce at a salt concentration of 4% (w/v) and an alcohol concentration of 5% (v/v).
The test substance described in Table 20 was added to the above-mentioned produced soy sauce to concentrations of 1 to 100 ppm. Lactic acid bacteria (Lactobacillus rennini (DSM 20253)) were then added to 10^6 to 10^7 cells/mL and cultured at 30° C. for 7 days. After the culture, the number of lactic acid bacteria was measured using the GAM agar medium “Nissui”. Soy sauce to which licoricidin was not added was used as a control group, and the antimicrobial activity was evaluated in comparison with the number of lactic acid bacteria in the control group. The evaluation was performed using the criterion shown below.
• A: The bacterial count decreases to less than 10% of the bacterial count of the control group. • B: The bacterial count decreases to 10% or more and less than 50% of the bacterial count of control group. • C: The bacterial count decreases to 50% or more and less than 100% of the bacterial count of the control group. • D: The bacterial count is the same as the bacterial count of the control group. • -: Not evaluated

[2] = tested on: Lactobacillus fructivores (NBRC 13954); assay: Antimicrobial action of oxygen-containing heterocyclic compounds in soy sauce (Test Example 7); format: cell-based; details: NBRC13954, 168 h, salt 4% (w/v), alcohol 5% (v/v); for activity at 0.1 ppm: test substance 0.1 ppm; for activity at 0.5 ppm: test substance 0.5 ppm; for activity at 1 ppm: test substance 1 ppm; for activity at 5 ppm: test substance 5 ppm; for activity at 25 ppm: test substance 25 ppm; for activity at 50 ppm: test substance 50 ppm
Experimental: as §1
The test substance described in Table 21 was added to the soy sauce produced in Test Example 6 to concentrations of 0.1 ppm, 0.5 ppm, 1 ppm, 5 ppm, 25 ppm, and 50 ppm. Lactic acid bacteria (Lactobacillus fructivores (NBRC 13954)) were then added to 10^4 to 10^5 cells/mL and cultured at 30° C. for 7 days. After the culture, the number of lactic acid bacteria was measured using Difco Lactobacilli MRS Agar. Soy sauce to which the test substance was not added was used as a control group, and the antimicrobial activity was evaluated in comparison with the number of lactic acid bacteria in the control group. The evaluation was performed using the following criterion.
• A: The bacterial count decreases to less than 10% of the bacterial count of a control group. • B: The bacterial count decreases to 10% or more and less than 50% of the bacterial count of the control group. • C: The bacterial count decreases to 50% or more and less than 100% of the bacterial count of the control group. • D: The bacterial count is the same as the bacterial count of the control group.

| SMILES | activity at 1 ppm [1] | activity at 5 ppm [1] | activity at 10 ppm [1] | activity at 25 ppm [1] | activity at 50 ppm [1] | activity at 100 ppm [1] | activity at 0.1 ppm [2] | activity at 0.5 ppm [2] | activity at 1 ppm [2] | activity at 5 ppm [2] | activity at 25 ppm [2] | activity at 50 ppm [2] | Antimicrobial activity [1] |
| --- | --- | --- | --- | --- | --- | --- | --- | --- | --- | --- | --- | --- | --- |
| CC(C)=CCc1cc(-c2coc3cc(O)c(CC=C(C)C)c(O)c3c2=O)cc(O)c1O [Isoangustone A, 3-[3,4-dihydroxy-5-(3-methyl-2-butenyl)phenyl]-5,7-dihydroxy-6-(3-methyl-2-butenyl)-4H-chromen-4-one] | 10 to 50% | < 10% | < 10% | < 10% | < 10% | < 10% | 10 to 50% | 10 to 50% | 50 to 100% | 10 to 50% | < 10% | < 10% | – |
| COc1cc2oc(=O)c(-c3ccc(O)cc3O)cc2c(OC)c1CC=C(C)C [Glycyrin, 3-(2,4-dihydroxyphenyl)-5,7-dimethoxy-6-(3-methyl-2-butenyl)-2H-1-benzopyran-2-one] | – | 10 to 50% | 10 to 50% | < 10% | < 10% | < 10% | 10 to 50% | 10 to 50% | 10 to 50% | 10 to 50% | 10 to 50% | 10 to 50% | D |
| COc1c(CC=C(C)C)c(O)cc2c1C[C@H](c1ccc(O)cc1O)CO2 [Glyasperin C, (3R)-3β(2,4-dihydroxyphenyl)-5-methoxy-6-(3-methyl-2-butenyl)-3,4-dihydro-2H-1-benzopyran-7-ol] | 10 to 50% | 10 to 50% | 10 to 50% | < 10% | < 10% | < 10% | 10 to 50% | 10 to 50% | 10 to 50% | 10 to 50% | 10 to 50% | < 10% | – |
| C=CC(C)(C)c1c(O)cc(OC)c2cc(-c3ccc(O)cc3O)c(=O)oc12 [Licoarylcoumarin, 3-(2,4-dihydroxyphenyl)-7-hydroxy-5-methoxy-8-(2-methyl-3-butene-2-yl)coumarin] | – | 50 to 100% | 50 to 100% | 10 to 50% | 10 to 50% | < 10% | 10 to 50% | 10 to 50% | 10 to 50% | 50 to 100% | 10 to 50% | 10 to 50% | D |
| CC(C)=CCc1c(O)c(CC=C(C)C)c2occ(-c3ccc(O)cc3)c(=O)c2c1O [8-(γ,γ-dimethylallyl)-wighteone, 6,8-bis(3-methyl-2-butenyl)-3-(4-hydroxyphenyl)-5,7-dihydroxy-4H-1-benzopyran-4-one] | 50 to 100% | < 10% | < 10% | < 10% | < 10% | < 10% | 10 to 50% | 10 to 50% | 10 to 50% | < 10% | < 10% | < 10% | – |
| COc1c(CC=C(C)C)c(O)cc2oc(=O)c(-c3ccc(O)cc3O)cc12 [Glycycoumarin, 3-(2,4-dihydroxyphenyl)-7-hydroxy-5-methoxy-6-(3-methyl-2-butenyl)-2H-1-benzopyran-2-one] | – | 10 to 50% | 10 to 50% | < 10% | < 10% | < 10% | 10 to 50% | 10 to 50% | 10 to 50% | 10 to 50% | < 10% | < 10% | D |
| COc1cc2oc(-c3ccc(O)cc3O)cc2c(OC)c1CC=C(C)C [Gancaonin I, 5-(3-methyl-2-butenyl)-2-(2,4-dihydroxyphenyl)-4,6-dimethoxybenzofuran] | 50 to 100% | < 10% | < 10% | < 10% | < 10% | < 10% | 10 to 50% | 50 to 100% | 10 to 50% | 50 to 100% | 10 to 50% | < 10% | – |
